# Test results as given in patent EP0036572A1, “Substituted alkylthioacylamino acids, processes for their preparation and pharmaceutical compositions” (C.H. BOEHRINGER SOHN, priority 1980, dated 1981).
# Experiments:
# [1] = test system: durch Bradykinin erzeugte Blutdrucksenkung; details: Ratten; 3,0 µ g/kg Bradykinin i.v.; test substance 1,38juMol/kg i.v.
# [2] = test system: genetischen Hochdruckratte; details: genetische Hochdruckratte; 30 mg/kg p.o.
structure (smiles),measurement,setting,value
"C[C@H](CSC(C[N+](=O)[O-])c1ccccc1)C(=O)N1CCC[C@H]1C(=O)O (stereo partly drawn) [Beispiel 1, 1-[3-(1-Phenyl-2-nitro-äthylthio)-2-D-methylpropanoyl]-L-prolin]",durch Bradykinin verursachte Blutdrucksenkung verstärkt um,[1],142%
same,Blutdrucksenkung,[2],19%
